# Publication PMC11695783 (Frontiers in Pharmacology, 2024)
# “And” between values parts separate entries of the source, which are not always exact repeats. Identical values can stand only once.
# How the values were obtained:
# [1] = test system: TNF-α; assay: TNF-α in BALF of M. pneumoniae-infected mice (ELISA); type: in vivo, BALB/c mice; conditions: for TNF-α in BALF (AV): group AV; for TNF-α in BALF: individual mice
# Protocol: (§1) Adult BALB/c mice (20–22 g) were divided into a control group, a positive group, and compound 16C groups at low (20 mg/kg), medium (40 mg/kg), and high-dose (80 mg/kg) levels and oral and intramuscular tiamulin treatment groups (40 mg/kg). We formulated the above dose range based on the dose at which tiamulin was approved for injection (10–20 mg/kg) and the dose previously reported (45 mg/kg) ([EMA, 1999]; [Xiao et al., 2016]). In summary, we selected similar doses for compound 16C in vivo study. 40 mg/kg was used as an intermediate value, one-half of it as a low dose, and two times of it as a high dose. To prepare the challenge solution, logarithmic phase culture suspensions were centrifuged at 1700 g for 10 min, and the pellets were suspended in sterile PBS to obtain 1 × 10^9 CFU/mL. Before the challenge, mice were anesthetized with tribromoethanol (250 mg/kg, IP). Mice in the control groups were intratracheally inoculated with sterile PBS, whereas mice in the other groups were intratracheally challenged with 50 μL (1 × 10^9 CFU/mL) M. pneumoniae suspension once a day for 3 days. Compound 16C and tiamulin (tiamulin-IM group) dissolved using the method mentioned in pharmacokinetic studies, and the tiamulin fumarate soluble powder was dissolved in ddH2O for oral administration. After the final challenge, antibiotics were administered at low, medium, and high-dose levels (see above) at 10 a.m. and 10 p.m. daily for 4 consecutive days. Normal saline containing 5% DMSO and 5% Tween-80 was administered as control and positive groups by thigh intramuscular injection. To compare the efficacy of compound 16C and tiamulin under the same route of administration, we used the original tiamulin for intramuscular administration in the same formulation. On the other hand, tiamulin fumarate soluble powder, approved for oral administration to treat animal mycoplasma diseases in China, was administered to mice by gavage. Based on a clinical study of lefamulin in community-acquired bacterial pneumonia (CABP), subjects were administered twice a day and the 96 ± 24 h of starting treatment was an essential point for early clinical response (ECR) ([Paukner et al., 2022]). We therefore stopped treatment at 96 h and sampled at 192 h to explore whether the disease worsened after cessation of treatment. Bronchoalveolar lavage fluid (BALF) and lungs were collected at 0, 96, 192 h (Samples of 0 h were collected before starting treatment, and mice were fed ad libitum without drug treatment during 96–192 h) after the first dose, BALF for cytokine and cytological analysis and lung for histopathological evaluation.
# (§2) Bronchoalveolar lavage was performed according to a standardized method ([Van Hoecke et al., 2017]). BALF was obtained following infusion of 0.5 mL PBS via tracheal cannulation into the lung twice (total 1 mL), and 200 µL was used for mycoplasma counts. The remaining BALF was centrifuged at 300 g for 10 min to separate the debris. The supernatants were stored at −80°C, and the debris was resuspended in the same volume of PBS containing red blood cell lysis buffer. A hemocytometer was used to count total cell numbers in BALF, and cell smears (Diff-Quik staining) were prepared to calculate the percentages of neutrophils, macrophages, and lymphocytes. IFN-γ, TNF-α, and CXCL1 levels in BALF samples were assessed using commercial ELISA kits using guidelines recommended by the manufacturer (Elabscience, Wuhan, China). Parallel data for each experimental group at each time point were obtained from six different mice.
# [2] = test system: Mycoplasma pneumoniae strain M129 (ATCC 29342); assay: Time-kill curves; type: cell-based; parameters: M. pneumoniae count in time-kill curve: unit not given here
# How it was run: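 Strain grown at 37 °C, 5% CO2 in modified SP-4 broth (pH 7.4, 20% FBS). Cultures incubated 72 h, sampled every 12 h, 10-fold serially diluted and plated on SP-4 agar; colonies counted after 7 d. Three repeats.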
# [3] = test system: CXCL1; assay: CXCL1 in BALF of M. pneumoniae-infected mice (ELISA); type: in vivo, BALB/c mice; conditions: for CXCL1 in BALF (AV): group AV; for CXCL1 in BALF: individual mice
# Protocol: as §1, §2
# [4] = compound 16C 20 mg/kg IM, 192 h
# [5] = compound 16C 40 mg/kg IM, 192 h
# [6] = compound 16C 80 mg/kg IM, 192 h
structure (smiles),measurement,setting,value
"C=CC1(C)CC(OC(=O)CSc2ccc(NC(=O)Cc3ccc([N+](=O)[O-])cc3)cc2)C2(C)C(C)CCC3(CCC(=O)C32)C(C)C1O (centres unmarked) [compound 16C, 22–((4-((4-nitrophenyl)acetamido)phenyl)thio)deoxypleuromutilin]",TNF-α in BALF (AV),"[1]; compound 16C 20 mg/kg IM, 96 h",60.6586 pg/mL
same,TNF-α in BALF,"[1]; compound 16C 20 mg/kg IM, 96 h",156.929 pg/mL and 49.4117 pg/mL and 56.9942 pg/mL and 23.2695 pg/mL and 42.5167 pg/mL and 34.8302 pg/mL
same,TNF-α in BALF (AV),[1]; [4],1.835 pg/mL
same,TNF-α in BALF,[1]; [4],1.8363 pg/mL and 1.566 pg/mL and 2.372 pg/mL and 2.105 pg/mL and 1.293 pg/mL
same,TNF-α in BALF (AV),"[1]; compound 16C 40 mg/kg IM, 96 h",10.1817 pg/mL
same,TNF-α in BALF,"[1]; compound 16C 40 mg/kg IM, 96 h",13.0051 pg/mL and 8.3889 pg/mL and 8.57 pg/mL and 9.454 pg/mL and 9.28 pg/mL and 12.3919 pg/mL
same,TNF-α in BALF (AV),[1]; [5],8.528 pg/mL
same,TNF-α in BALF,[1]; [5],8.021 pg/mL and 8.206 pg/mL and 7.835 pg/mL and 9.798 pg/mL and 9.105 pg/mL
same,TNF-α in BALF (AV),"[1]; compound 16C 80 mg/kg IM, 96 h",10.9013 pg/mL
same,TNF-α in BALF,"[1]; compound 16C 80 mg/kg IM, 96 h",5.596 pg/mL and 10.365 pg/mL and 13.376 pg/mL and 12.1685 pg/mL and 14.3215 pg/mL and 9.581 pg/mL
same,TNF-α in BALF (AV),[1]; [6],10.3825 pg/mL
same,TNF-α in BALF,[1]; [6],8.923 pg/mL and 7.924 pg/mL and 10.8189 pg/mL and 12.996 pg/mL and 10.1697 pg/mL and 11.4637 pg/mL
same,M. pneumoniae count in time-kill curve,"[2]; 1×MIC, time 0",7.809
same,M. pneumoniae count in time-kill curve,"[2]; 1×MIC, time 12",7.011
same,M. pneumoniae count in time-kill curve,"[2]; 1×MIC, time 24",6.5256
same,M. pneumoniae count in time-kill curve,"[2]; 1×MIC, time 36",6.341
same,M. pneumoniae count in time-kill curve,"[2]; 1×MIC, time 48",6.63
same,M. pneumoniae count in time-kill curve,"[2]; 1×MIC, time 60",6.334
same,M. pneumoniae count in time-kill curve,"[2]; 1×MIC, time 72",5.5397
same,reduction of bacterial counts,"[2]; 1–4 × MIC, 72 h",2.27–2.60 log10 CFU/mL
same,M. pneumoniae count in time-kill curve,"[2]; 2×MIC, time 0",7.809
same,M. pneumoniae count in time-kill curve,"[2]; 2×MIC, time 12",6.901
same,M. pneumoniae count in time-kill curve,"[2]; 2×MIC, time 24",6.35
same,M. pneumoniae count in time-kill curve,"[2]; 2×MIC, time 36",6.074
same,M. pneumoniae count in time-kill curve,"[2]; 2×MIC, time 48",6.197
same,M. pneumoniae count in time-kill curve,"[2]; 2×MIC, time 60",5.9
same,M. pneumoniae count in time-kill curve,"[2]; 2×MIC, time 72",5.211
same,M. pneumoniae count in time-kill curve,"[2]; 4×MIC, time 0",7.247
same,M. pneumoniae count in time-kill curve,"[2]; 4×MIC, time 12",6.539
same,M. pneumoniae count in time-kill curve,"[2]; 4×MIC, time 24",6.026
same,M. pneumoniae count in time-kill curve,"[2]; 4×MIC, time 36",5.763
same,M. pneumoniae count in time-kill curve,"[2]; 4×MIC, time 48",5.628
same,M. pneumoniae count in time-kill curve,"[2]; 4×MIC, time 60",5.61
same,M. pneumoniae count in time-kill curve,"[2]; 4×MIC, time 72",4.889
same,M. pneumoniae count in time-kill curve,"[2]; 8×MIC, time 0",7.429
same,M. pneumoniae count in time-kill curve,"[2]; 8×MIC, time 12",7.7
same,M. pneumoniae count in time-kill curve,"[2]; 8×MIC, time 24",5.719
same,M. pneumoniae count in time-kill curve,"[2]; 8×MIC, time 36",4.474
same,M. pneumoniae count in time-kill curve,"[2]; 8×MIC, time 48",3.799
same,M. pneumoniae count in time-kill curve,"[2]; 8×MIC, time 60",3
same,M. pneumoniae count in time-kill curve,"[2]; 8×MIC, time 72",3.001
same,M. pneumoniae count in time-kill curve,"[2]; 16×MIC, time 0",7.247
same,M. pneumoniae count in time-kill curve,"[2]; 16×MIC, time 12",7.508
same,M. pneumoniae count in time-kill curve,"[2]; 16×MIC, time 24",4.094
same,M. pneumoniae count in time-kill curve,"[2]; 16×MIC, time 36",3.774
same,M. pneumoniae count in time-kill curve,"[2]; 16×MIC, time 48",3.36
same,M. pneumoniae count in time-kill curve,"[2]; 16×MIC, time 60",2.9656
same,M. pneumoniae count in time-kill curve,"[2]; 16×MIC, time 72",2.848
same,M. pneumoniae count in time-kill curve,"[2]; 32×MIC, time 0",7.065
same,M. pneumoniae count in time-kill curve,"[2]; 32×MIC, time 12",6.342
same,M. pneumoniae count in time-kill curve,"[2]; 32×MIC, time 24",6.583
same,M. pneumoniae count in time-kill curve,"[2]; 32×MIC, time 36",4.407
same,M. pneumoniae count in time-kill curve,"[2]; 32×MIC, time 48",3.894
same,M. pneumoniae count in time-kill curve,"[2]; 32×MIC, time 60",3.568
same,M. pneumoniae count in time-kill curve,"[2]; 32×MIC, time 72",2.774
same,number of organisms (decreased to the LOD),"[2]; 64 × MIC, 72 h exposure",2 log10 CFU/mL
same,M. pneumoniae count in time-kill curve,"[2]; 64×MIC, time 0",7.065
same,M. pneumoniae count in time-kill curve,"[2]; 64×MIC, time 12",5.938
same,M. pneumoniae count in time-kill curve,"[2]; 64×MIC, time 24",5.724
same,M. pneumoniae count in time-kill curve,"[2]; 64×MIC, time 36",3.5819
same,M. pneumoniae count in time-kill curve,"[2]; 64×MIC, time 48",3.199
same,M. pneumoniae count in time-kill curve,"[2]; 64×MIC, time 60",2.961
same,M. pneumoniae count in time-kill curve,"[2]; 64×MIC, time 72",2
same,concentration at which bactericidal effect was achieved,"[2]; static time-kill, 72 h",≥ 8 × MIC
same,reduction of bacterial counts,"[2]; ≥ 8×MIC, 72 h",> 3 log10 CFU/mL
same,CXCL1 in BALF (AV),"[3]; compound 16C 20 mg/kg IM, 96 h",48.0123 pg/mL
same,CXCL1 in BALF,"[3]; compound 16C 20 mg/kg IM, 96 h",56.3478 pg/mL and 48.458 pg/mL and 47.2524 pg/mL and 45.2286 pg/mL and 42.7748 pg/mL
same,CXCL1 in BALF (AV),[3]; [4],38.192 pg/mL
same,CXCL1 in BALF,[3]; [4],48.0568 pg/mL and 31.7563 pg/mL and 40.2912 pg/mL and 33.499 pg/mL and 37.352 pg/mL and 38.1966 pg/mL
same,CXCL1 in BALF (AV),"[3]; compound 16C 40 mg/kg IM, 96 h",22.7681 pg/mL
same,CXCL1 in BALF,"[3]; compound 16C 40 mg/kg IM, 96 h",15.9622 pg/mL and 24.4156 pg/mL and 34.1197 pg/mL and 28.066 pg/mL and 17.0225 pg/mL
same,CXCL1 in BALF (AV),[3]; [5],28.9333 pg/mL
same,CXCL1 in BALF,[3]; [5],23.476 pg/mL and 20.5799 pg/mL and 29.3957 pg/mL and 43.4026 pg/mL and 16.4951 pg/mL and 40.2505 pg/mL
same,CXCL1 in BALF (AV),"[3]; compound 16C 80 mg/kg IM, 96 h",24.5788 pg/mL
same,CXCL1 in BALF,"[3]; compound 16C 80 mg/kg IM, 96 h",33.6631 pg/mL and 23.7534 pg/mL and 35.719 pg/mL and 18.1872 pg/mL and 17.5299 pg/mL and 18.6204 pg/mL
same,CXCL1 in BALF (AV),[3]; [6],39.611 pg/mL
same,CXCL1 in BALF,[3]; [6],45.7844 pg/mL and 28.8637 pg/mL and 42.9442 pg/mL and 41.3398 pg/mL and 45.9405 pg/mL and 32.7936 pg/mL
